17 compounds from patent US9376442B2, “Methylpyrrolopyrimidinecarboxamides” (Takeda GmbH, priority 2009, dated 2016) can be followed below.

Structures are written as SMILES.

Assay [1] addresses T1, PDE5A1 (Homo sapiens, UniProt O76074).
T1 construct: from tissue; host or cells: human platelets from fresh donor blood (10,000 x g supernatant of sonicated lysate)
The assay can be described thus: Inhibition of type 5 phosphodiesterase (PDE5) activity, modified SPA test with human platelet lysate. The assay is classed as biochemical. To be noted: 0.5 μM cGMP, read-out: PDE5A1 inhibitory values [measured as −log IC50 (mol/l)] (converted). The essentials: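 Enzyme source is lysate from human platelets (10,000 g supernatant). Compound preincubated 5 min at 37° C in Tris pH 7.4 containing 1 μM motapizone and 10 nM of a PDE2 inhibitor. Reaction started with 0.5 μM cGMP ([3H] tracer) and run 15 min; SPA read-out, IC50 by non-linear regression.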

The target in assay [2] is T2, PDE4B1 (Homo sapiens, UniProt Q07343).
T2 construct: made in house; host or cells: SF21 insect cells (baculovirus; pCRBac vector), 1000 x g supernatant of homogenate
T2 sequence (Q07343 whole entry): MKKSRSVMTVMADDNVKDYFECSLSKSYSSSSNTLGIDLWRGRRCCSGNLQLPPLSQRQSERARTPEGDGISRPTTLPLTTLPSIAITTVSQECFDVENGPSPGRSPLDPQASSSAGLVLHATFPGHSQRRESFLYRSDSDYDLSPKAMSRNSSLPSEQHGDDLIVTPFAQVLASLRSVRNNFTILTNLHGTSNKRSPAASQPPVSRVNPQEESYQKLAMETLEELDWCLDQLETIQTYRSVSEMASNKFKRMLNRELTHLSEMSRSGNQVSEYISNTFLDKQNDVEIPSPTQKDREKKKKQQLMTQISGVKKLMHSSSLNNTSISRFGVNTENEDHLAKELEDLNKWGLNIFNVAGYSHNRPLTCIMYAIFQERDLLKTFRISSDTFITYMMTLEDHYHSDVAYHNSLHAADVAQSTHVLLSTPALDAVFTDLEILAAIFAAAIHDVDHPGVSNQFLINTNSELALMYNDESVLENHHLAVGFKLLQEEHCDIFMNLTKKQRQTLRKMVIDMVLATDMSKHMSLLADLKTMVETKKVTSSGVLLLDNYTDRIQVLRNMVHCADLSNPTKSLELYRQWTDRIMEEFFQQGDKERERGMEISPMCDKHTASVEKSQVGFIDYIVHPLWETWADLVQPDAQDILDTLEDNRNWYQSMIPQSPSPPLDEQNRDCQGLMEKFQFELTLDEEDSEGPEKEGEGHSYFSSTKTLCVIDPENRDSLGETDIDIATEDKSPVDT
The assay can be described thus: Inhibition of type 4 phosphodiesterase (PDE4) activity, modified SPA test with recombinant PDE4B1 expressed in SF21 insect cells. The assay is classed as biochemical. The note with it: recombinant PDE4B1, 0.5 μM cAMP, read-out: PDE4B1 inhibitory values [measured as −log IC50 (mol/l)] (converted). The essentials:
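Modified [3H]cAMP SPA using 1000×g supernatant of SF21 cells expressing recombinant human PDE4B1, in 20 mM Tris pH 7.4, 0.1 mg/ml BSA, 5 mM Mg2+, 0.5 μM cAMP. After 5 min preincubation at 37 °C, 15 min reaction, stopped with SPA beads plus IBMX; IC50 by non-linear regression.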

As for `Cc1ccc(OCC2CC2)c(-c2ncnc3c(C(=O)N[C@H]4CC[C@H](NC(=O)CO)CC4)c(C)[nH]c23)c1` [Example F53, 4-[2-(Cyclopropylmethoxy)-5-methylphenyl]-N-{trans-4-[(hydroxyacetyl)amino]cyclohexyl}-6-methyl-5H-pyrrolo[3,2-d]pyrimidine-7-carboxamide], the values for the IC50 in assay [1] and in assay [2] were less than 1 nM and less than 100 nM, respectively.
With `Cc1ccc(OCC2CC2)c(-c2ncnc3c(C(=O)N[C@H]4CC[C@H](NC(=O)[C@H](C)O)CC4)c(C)[nH]c23)c1` [Example F54, 4-[2-(Cyclopropylmethoxy)-5-methylphenyl]-N-(trans-4-{[(2S)-2-hydroxypropanoyl]amino}cyclohexyl)-6-methyl-5H-pyrrolo[3,2-d]pyrimidine-7-carboxamide], the IC50 was less than 1 nM in assay [1] and less than 100 nM in assay [2].
For `Cc1ccc(OCC2CC2)c(-c2ncnc3c(C(=O)N[C@H]4CC[C@@H](NC(=O)CO)CC4)c(C)[nH]c23)c1` [Example F55, 4-[2-(Cyclopropylmethoxy)-5-methylphenyl]-N-{cis-4-[(hydroxyacetyl)amino]cyclohexyl}-6-methyl-5H-pyrrolo[3,2-d]pyrimidine-7-carboxamide], in that order: less than 1 nM and less than 100 nM.
For the compound `Cc1ccc(OCC2CC2)c(-c2ncnc3c(C(=O)N[C@H]4CC[C@@H](NC(=O)[C@H](C)O)CC4)c(C)[nH]c23)c1` [Example F56, 4-[2-(Cyclopropylmethoxy)-5-methylphenyl]-N-(cis-4-{[(2S)-2-hydroxypropanoyl]amino}cyclohexyl)-6-methyl-5H-pyrrolo[3,2-d]pyrimidine-7-carboxamide], the IC50 is less than 1 nM in assay [1] and less than 100 nM in assay [2].
For `Cc1[nH]c2c(-c3cc(C(F)(F)F)ccc3OCC3CC3)ncnc2c1C(=O)NC1CCN(C(=O)CO)CC1` [Example F57, 4-[2-(Cyclopropylmethoxy)-5-(trifluoromethyl)phenyl]-N-[1-(hydroxyacetyl)piperidin-4-yl]-6-methyl-5H-pyrrolo[3,2-d]pyrimidine-7-carboxamide], in that order: less than 1 nM and less than 100 nM.
Turning to `Cc1[nH]c2c(-c3cc(C(F)(F)F)ccc3OCC3CC3)ncnc2c1C(=O)NC1CCN(C(=O)[C@H](C)O)CC1` [Example F58, 4-[2-(Cyclopropylmethoxy)-5-(trifluoromethyl)phenyl]-N-{1-[(2S)-2-hydroxypropanoyl]piperidin-4-yl}-6-methyl-5H-pyrrolo[3,2-d]pyrimidine-7-carboxamide], the IC50 in assay [1] was less than 1 nM; in assay [2], 100 to 1000 nM.
The corresponding values for `Cc1[nH]c2c(-c3cc(C(F)(F)F)ccc3OCC3CC3)ncnc2c1C(=O)N[C@H]1CC[C@H](NC(=O)CO)CC1` [Example F59, 4-[2-(Cyclopropylmethoxy)-5-(trifluoromethyl)phenyl]-N-{trans-4-[(hydroxyacetyl)amino]cyclohexyl}-6-methyl-5H-pyrrolo[3,2-d]pyrimidine-7-carboxamide] are less than 1 nM and less than 100 nM.
The corresponding values for `Cc1[nH]c2c(-c3cc(C(F)(F)F)ccc3OCC3CC3)ncnc2c1C(=O)N[C@H]1CC[C@H](NC(=O)[C@H](C)O)CC1` [Example F60, 4-[2-(Cyclopropylmethoxy)-5-(trifluoromethyl)phenyl]-N-(trans-4-{[(2S)-2-hydroxypropanoyl]amino}cyclohexyl)-6-methyl-5H-pyrrolo[3,2-d]pyrimidine-7-carboxamide] are less than 1 nM and less than 100 nM.
For `Cc1[nH]c2c(-c3cc(C(F)(F)F)ccc3OCC3CC3)ncnc2c1C(=O)N[C@H]1CC[C@@H](NC(=O)CO)CC1` [Example F61, 4-[2-(Cyclopropylmethoxy)-5-(trifluoromethyl)phenyl]-N-{cis-4-[(hydroxyacetyl)amino]cyclohexyl}-6-methyl-5H-pyrrolo[3,2-d]pyrimidine-7-carboxamide], in that order: less than 1 nM and less than 100 nM.
With `Cc1[nH]c2c(-c3cc(C(F)(F)F)ccc3OCC3CC3)ncnc2c1C(=O)N[C@H]1CC[C@@H](NC(=O)[C@H](C)O)CC1` [Example F62, 4-[2-(Cyclopropylmethoxy)-5-(trifluoromethyl)phenyl]-N-(cis-4-{[(2S)-2-hydroxypropanoyl]amino}cyclohexyl)-6-methyl-5H-pyrrolo[3,2-d]pyrimidine-7-carboxamide], the IC50 in assay [1] is less than 1 nM; in assay [2] it was less than 100 nM.
For `CCc1ccc(OCC2CC2)c(-c2ncnc3c(C(=O)N[C@H]4CC[C@H](NC(=O)CO)CC4)c(C)[nH]c23)c1` [Example F93, 4-[2-(Cyclopropylmethoxy)-5-ethylphenyl]-N-{trans-4-[(hydroxyacetyl)amino]cyclohexyl}-6-methyl-5H-pyrrolo[3,2-d]pyrimidine-7-carboxamide], the results for the IC50 in assay [1] and in assay [2] were less than 1 nM and less than 100 nM, respectively.
For `CCc1ccc(OCC2CC2)c(-c2ncnc3c(C(=O)N[C@H]4CC[C@H](NC(=O)[C@H](C)O)CC4)c(C)[nH]c23)c1` [Example F94, 4-[2-(Cyclopropylmethoxy)-5-ethylphenyl]-N-(trans-4-{[(2S)-2-hydroxypropanoyl]amino}cyclohexyl)-6-methyl-5H-pyrrolo[3,2-d]pyrimidine-7-carboxamide], in that order: less than 1 nM and less than 100 nM.
For `CCc1ccc(OCC2CC2)c(-c2ncnc3c(C(=O)N[C@H]4CC[C@@H](NC(=O)CO)CC4)c(C)[nH]c23)c1` [Example F95, 4-[2-(Cyclopropylmethoxy)-5-ethylphenyl]-N-{cis-4-[(hydroxyacetyl)amino]cyclohexyl}-6-methyl-5H-pyrrolo[3,2-d]pyrimidine-7-carboxamide], in that order: less than 1 nM and less than 100 nM.
Take `CCc1ccc(OCC2CC2)c(-c2ncnc3c(C(=O)NC4CCC(NC(=O)C(C)O)CC4)c(C)[nH]c23)c1` (stereo not drawn) [Example F96, 4-[2-(Cyclopropylmethoxy)-5-ethylphenyl]-N-(cis-4-{[(25)-2-hydroxypropanoyl]amino}cyclohexyl)-6-methyl-5H-pyrrolo[3,2-d]pyrimidine-7-carboxamide]: the IC50 in assay [1] is less than 1 nM; in assay [2], less than 100 nM.
For `Cc1[nH]c2c(-c3cc(C(C)C)ccc3OCC3CC3)ncnc2c1C(=O)NC1CCN(C(=O)[C@H](C)O)CC1` [Example F99, 4-[2-(Cyclopropylmethoxy)-5-(propan-2-yl)phenyl]-N-{1-[(2S)-2-hydroxypropanoyl]piperidin-4-yl}-6-methyl-5H-pyrrolo[3,2-d]pyrimidine-7-carboxamide], in that order: less than 1 nM and 100 to 1000 nM.
Consider `Cc1[nH]c2c(-c3cc(C(C)C)ccc3OCC3CC3)ncnc2c1C(=O)N[C@H]1CC[C@H](NC(=O)[C@H](C)O)CC1` [Example F100, 4-[2-(Cyclopropylmethoxy)-5-(propan-2-yl)phenyl]-N-(trans-4-{[(2S)-2-hydroxypropanoyl]amino}cyclohexyl)-6-methyl-5H-pyrrolo[3,2-d]pyrimidine-7-carboxamide], for which the results for the IC50 in assay [1] and in assay [2] were less than 1 nM and 100 to 1000 nM, respectively.
For `Cc1[nH]c2c(-c3cc(C(C)C)ccc3OCC3CC3)ncnc2c1C(=O)N[C@H]1CC[C@@H](NC(=O)[C@H](C)O)CC1` [Example F101, 4-[2-(Cyclopropylmethoxy)-5-(propan-2-yl)phenyl]-N-(cis-4-{[(2S)-2-hydroxypropanoyl]amino}cyclohexyl)-6-methyl-5H-pyrrolo[3,2-d]pyrimidine-7-carboxamide], in that order: less than 1 nM and 100 to 1000 nM.
